For 13 compounds, AC50 results are on record in ChEMBL document CHEMBL5291721, “A preclinical secondary pharmacology resource illuminates target-adverse drug reaction associations of marketed drugs” (Nat Commun, 2023).

Some targets named below: Vasopressin V2 receptor (Homo sapiens, UniProt P30518); Histamine H3 receptor (Homo sapiens, UniProt Q9Y5N1); Vasopressin V1a receptor (Homo sapiens, UniProt P37288).
Test [1] concerns the target T1, 5-hydroxytryptamine receptor 2C (Homo sapiens, UniProt P28335).
T1 sequence (P28335 whole entry): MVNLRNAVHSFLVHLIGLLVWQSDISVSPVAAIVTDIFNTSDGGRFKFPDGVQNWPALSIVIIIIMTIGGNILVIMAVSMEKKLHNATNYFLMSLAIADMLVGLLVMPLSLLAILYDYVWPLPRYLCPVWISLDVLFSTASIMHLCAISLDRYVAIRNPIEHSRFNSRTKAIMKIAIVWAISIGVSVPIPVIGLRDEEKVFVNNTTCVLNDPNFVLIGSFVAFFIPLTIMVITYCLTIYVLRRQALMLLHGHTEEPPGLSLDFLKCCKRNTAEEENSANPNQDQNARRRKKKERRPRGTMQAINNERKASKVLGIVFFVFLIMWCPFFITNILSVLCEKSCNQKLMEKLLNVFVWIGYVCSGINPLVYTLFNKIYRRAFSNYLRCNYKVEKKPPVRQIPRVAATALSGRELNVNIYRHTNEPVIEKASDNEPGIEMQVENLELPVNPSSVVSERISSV

The target in another test is T2, Adenosine receptor A1 (Homo sapiens, UniProt P30542).
T2 sequence (P30542 whole entry): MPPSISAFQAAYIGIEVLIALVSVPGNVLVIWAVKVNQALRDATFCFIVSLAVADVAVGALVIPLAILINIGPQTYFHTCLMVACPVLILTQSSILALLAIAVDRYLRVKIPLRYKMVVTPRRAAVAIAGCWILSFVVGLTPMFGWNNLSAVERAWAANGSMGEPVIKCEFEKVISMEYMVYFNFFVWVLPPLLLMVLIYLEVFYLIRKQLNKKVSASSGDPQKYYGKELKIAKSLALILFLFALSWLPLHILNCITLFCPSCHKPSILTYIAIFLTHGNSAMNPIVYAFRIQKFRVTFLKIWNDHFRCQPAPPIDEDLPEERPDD

Test [2] addresses T3, Type-1 angiotensin II receptor (Homo sapiens, UniProt P30556).
T3 sequence (P30556 whole entry): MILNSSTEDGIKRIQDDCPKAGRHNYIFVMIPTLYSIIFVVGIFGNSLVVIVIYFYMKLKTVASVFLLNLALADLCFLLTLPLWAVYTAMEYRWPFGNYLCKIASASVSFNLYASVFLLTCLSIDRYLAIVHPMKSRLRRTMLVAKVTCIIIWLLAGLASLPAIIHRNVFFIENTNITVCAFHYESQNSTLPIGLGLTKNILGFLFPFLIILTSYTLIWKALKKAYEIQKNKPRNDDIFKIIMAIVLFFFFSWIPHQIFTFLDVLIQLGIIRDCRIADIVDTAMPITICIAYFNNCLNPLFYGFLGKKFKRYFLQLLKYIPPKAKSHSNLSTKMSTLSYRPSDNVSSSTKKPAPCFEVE

The target in test [3] is T4, Gastrin/cholecystokinin type B receptor (Homo sapiens, UniProt P32239).
T4 sequence (P32239 whole entry): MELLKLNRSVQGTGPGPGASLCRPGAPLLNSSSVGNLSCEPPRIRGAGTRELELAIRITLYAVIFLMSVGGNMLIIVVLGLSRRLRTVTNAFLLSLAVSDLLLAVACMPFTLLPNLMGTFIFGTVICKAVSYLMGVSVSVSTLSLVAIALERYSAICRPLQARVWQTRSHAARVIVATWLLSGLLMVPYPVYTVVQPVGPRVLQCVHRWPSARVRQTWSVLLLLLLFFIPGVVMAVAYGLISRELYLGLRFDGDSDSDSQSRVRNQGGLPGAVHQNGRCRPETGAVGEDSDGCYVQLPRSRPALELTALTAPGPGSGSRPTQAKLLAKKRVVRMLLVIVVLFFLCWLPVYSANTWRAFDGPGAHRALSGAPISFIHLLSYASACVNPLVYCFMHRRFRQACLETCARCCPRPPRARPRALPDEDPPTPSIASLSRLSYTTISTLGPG

The target of test [4] is T5, Muscarinic acetylcholine receptor M1 (Homo sapiens, UniProt P11229).
T5 sequence (P11229 whole entry): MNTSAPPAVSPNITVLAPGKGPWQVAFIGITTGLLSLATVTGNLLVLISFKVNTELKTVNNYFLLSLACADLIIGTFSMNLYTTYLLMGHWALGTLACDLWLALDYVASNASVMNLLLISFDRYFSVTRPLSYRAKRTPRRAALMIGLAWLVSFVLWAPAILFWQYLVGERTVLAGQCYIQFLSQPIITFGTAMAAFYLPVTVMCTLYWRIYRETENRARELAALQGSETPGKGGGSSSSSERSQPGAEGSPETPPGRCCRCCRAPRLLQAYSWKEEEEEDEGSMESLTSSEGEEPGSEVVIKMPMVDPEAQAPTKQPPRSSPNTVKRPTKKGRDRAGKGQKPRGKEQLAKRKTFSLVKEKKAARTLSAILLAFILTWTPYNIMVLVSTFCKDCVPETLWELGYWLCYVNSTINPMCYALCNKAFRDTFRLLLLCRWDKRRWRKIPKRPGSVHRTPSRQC
Type of test: functional.

A further test addresses Cannabinoid receptor 1 (Homo sapiens, UniProt P21554). Type of test: functional, cell-based.
Test [5] addresses T6, 5-hydroxytryptamine receptor 3A (Homo sapiens, UniProt P46098).
T6 sequence (P46098 whole entry): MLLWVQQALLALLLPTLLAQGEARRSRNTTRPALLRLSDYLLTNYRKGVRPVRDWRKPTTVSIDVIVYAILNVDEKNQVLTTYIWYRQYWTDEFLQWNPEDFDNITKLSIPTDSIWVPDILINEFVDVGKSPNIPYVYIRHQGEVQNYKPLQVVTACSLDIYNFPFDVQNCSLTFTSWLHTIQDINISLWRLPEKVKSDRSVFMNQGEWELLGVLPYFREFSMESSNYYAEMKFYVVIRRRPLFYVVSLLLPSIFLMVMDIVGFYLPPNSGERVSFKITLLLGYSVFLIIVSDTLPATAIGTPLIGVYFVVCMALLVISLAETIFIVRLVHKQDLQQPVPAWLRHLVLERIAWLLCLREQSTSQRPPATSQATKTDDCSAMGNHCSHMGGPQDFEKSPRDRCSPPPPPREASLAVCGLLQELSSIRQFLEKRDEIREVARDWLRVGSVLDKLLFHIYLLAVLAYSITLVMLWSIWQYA
Type of test: functional.

In test [6] the target is 5-hydroxytryptamine receptor 2A (Homo sapiens, UniProt P28223). Type of test: functional, cell-based.
Chain of 5-hydroxytryptamine receptor 2A (P28223 whole entry): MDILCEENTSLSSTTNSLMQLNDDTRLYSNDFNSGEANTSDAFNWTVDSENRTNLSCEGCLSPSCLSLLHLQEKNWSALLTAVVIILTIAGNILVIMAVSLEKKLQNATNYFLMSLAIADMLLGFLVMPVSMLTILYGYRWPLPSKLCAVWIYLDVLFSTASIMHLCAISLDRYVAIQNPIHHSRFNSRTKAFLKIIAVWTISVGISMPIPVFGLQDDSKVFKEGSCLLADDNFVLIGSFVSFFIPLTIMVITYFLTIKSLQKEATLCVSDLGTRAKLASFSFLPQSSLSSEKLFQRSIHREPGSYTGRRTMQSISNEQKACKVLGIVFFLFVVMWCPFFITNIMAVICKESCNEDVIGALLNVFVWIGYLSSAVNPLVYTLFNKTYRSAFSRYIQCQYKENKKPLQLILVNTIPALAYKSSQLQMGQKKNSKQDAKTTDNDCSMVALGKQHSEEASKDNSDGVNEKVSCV

Bounds are passed on as bounds.
Further: assay procedure not described here.

Chain of Cannabinoid receptor 1 (P21554 whole entry): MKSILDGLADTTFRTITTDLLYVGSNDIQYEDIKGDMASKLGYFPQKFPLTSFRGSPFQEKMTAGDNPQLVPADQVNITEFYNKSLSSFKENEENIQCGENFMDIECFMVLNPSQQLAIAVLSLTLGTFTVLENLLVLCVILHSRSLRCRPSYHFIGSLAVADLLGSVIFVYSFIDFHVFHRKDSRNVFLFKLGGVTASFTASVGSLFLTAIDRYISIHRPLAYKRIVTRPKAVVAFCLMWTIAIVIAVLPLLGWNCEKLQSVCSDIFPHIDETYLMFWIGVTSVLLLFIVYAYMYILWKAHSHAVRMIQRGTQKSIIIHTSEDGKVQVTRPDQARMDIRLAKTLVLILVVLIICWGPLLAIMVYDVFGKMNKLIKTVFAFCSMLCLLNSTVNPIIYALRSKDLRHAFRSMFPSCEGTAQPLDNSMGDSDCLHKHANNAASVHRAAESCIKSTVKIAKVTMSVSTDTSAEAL
Chain of Vasopressin V1a receptor (P37288 whole entry): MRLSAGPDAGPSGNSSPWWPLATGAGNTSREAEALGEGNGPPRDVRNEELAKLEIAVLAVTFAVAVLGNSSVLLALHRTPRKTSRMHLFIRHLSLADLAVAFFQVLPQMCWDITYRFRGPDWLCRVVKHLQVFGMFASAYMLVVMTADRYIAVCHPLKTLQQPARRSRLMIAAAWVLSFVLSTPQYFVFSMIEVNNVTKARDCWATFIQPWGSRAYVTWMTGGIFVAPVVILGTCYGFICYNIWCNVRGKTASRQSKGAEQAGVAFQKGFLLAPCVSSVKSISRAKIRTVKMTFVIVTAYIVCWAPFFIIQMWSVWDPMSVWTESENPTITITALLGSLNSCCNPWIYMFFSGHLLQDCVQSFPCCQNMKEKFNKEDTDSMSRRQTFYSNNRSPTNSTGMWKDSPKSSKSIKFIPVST
Chain of Vasopressin V2 receptor (P30518 whole entry): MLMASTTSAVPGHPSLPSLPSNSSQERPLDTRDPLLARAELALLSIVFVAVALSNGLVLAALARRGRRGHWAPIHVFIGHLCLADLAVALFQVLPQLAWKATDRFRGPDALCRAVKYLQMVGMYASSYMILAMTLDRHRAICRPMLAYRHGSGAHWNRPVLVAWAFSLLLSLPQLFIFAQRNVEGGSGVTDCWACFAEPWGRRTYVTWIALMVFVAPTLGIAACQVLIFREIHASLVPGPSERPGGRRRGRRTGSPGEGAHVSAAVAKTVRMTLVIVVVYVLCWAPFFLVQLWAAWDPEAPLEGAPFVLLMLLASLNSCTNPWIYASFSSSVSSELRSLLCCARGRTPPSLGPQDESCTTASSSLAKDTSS
Chain of Histamine H3 receptor (Q9Y5N1 whole entry): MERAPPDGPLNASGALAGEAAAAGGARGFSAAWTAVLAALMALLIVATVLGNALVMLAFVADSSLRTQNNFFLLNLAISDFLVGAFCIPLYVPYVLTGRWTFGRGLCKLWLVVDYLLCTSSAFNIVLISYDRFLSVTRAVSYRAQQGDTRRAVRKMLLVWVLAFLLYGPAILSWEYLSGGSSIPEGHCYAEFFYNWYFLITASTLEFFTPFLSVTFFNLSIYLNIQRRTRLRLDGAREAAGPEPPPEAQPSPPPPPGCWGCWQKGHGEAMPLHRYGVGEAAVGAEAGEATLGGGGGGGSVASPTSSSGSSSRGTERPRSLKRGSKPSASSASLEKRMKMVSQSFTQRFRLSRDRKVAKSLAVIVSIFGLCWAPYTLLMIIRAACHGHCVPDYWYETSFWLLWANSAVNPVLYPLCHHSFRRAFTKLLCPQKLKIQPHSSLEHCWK

On to `N[C@H](Cc1cc(I)c(Oc2cc(I)c(O)c(I)c2)c(I)c1)C(=O)O` [DEXTROTHYROXINE], for which the AC50 was above 30 µM in test [1]; above 30 µM at Vasopressin V2 receptor; above 30 µM on Adenosine receptor A1; above 30 µM in test [2]; above 30 µM in test [3]; above 10 µM in [4]. Moreover, the AC50 on Histamine H3 receptor was above 10 µM; at Vasopressin V1a receptor, above 30 µM; at Cannabinoid receptor 1, above 30 µM; in test [5], above 30 µM.
Take `C[C@@H]1C[C@H]2[C@@H]3C[C@H](F)C4=CC(=O)C=C[C@]4(C)[C@@]3(F)[C@@H](O)C[C@]2(C)[C@H]1C(=O)CO` [DIFLUCORTOLONE]: the half-maximal activity concentration (AC50) in test [4] and in test [6] was above 30 µM each time.
In the case of `Clc1ccc2c(c1)C(c1ccccc1)=NCc1nncn1-2` [ESTAZOLAM], the AC50 in test [1] is above 30 µM; at Vasopressin V2 receptor, above 30 µM; on Adenosine receptor A1, above 30 µM; in test [2], above 30 µM; in test [3] it was above 30 µM; in [4], above 10 µM. The AC50 on Histamine H3 receptor is above 10 µM; at Vasopressin V1a receptor, above 30 µM; on Cannabinoid receptor 1, above 30 µM; in [5], above 30 µM.
On to `Clc1ccc(C(Cn2ccnc2)OCc2ccc(Sc3ccccc3)cc2)c(Cl)c1` (stereo not given) [FENTICONAZOLE], for which the AC50 is above 30 µM in [1]; above 30 µM on Vasopressin V2 receptor; above 30 µM at Adenosine receptor A1; 23 µM in test [2]; above 30 µM in test [3]; above 30 µM in test [4]. Also, the AC50 (on Histamine H3 receptor; at Vasopressin V1a receptor; on Cannabinoid receptor 1; in test [5]) was above 30 µM in each case.
With `COC1=C(OC)C(=O)C(CCCCCCCCCCO)=C(C)C1=O` [IDEBENONE], the concentration at half-maximal activity (AC50) in test [1] is above 10 µM; on Vasopressin V2 receptor, 10.9 µM; at Adenosine receptor A1, above 30 µM; in test [2], above 30 µM; in test [3] it was above 30 µM; at Histamine H3 receptor it was above 10 µM. Further, the AC50 is above 10 µM at Vasopressin V1a receptor, above 30 µM on Cannabinoid receptor 1 and above 10 µM in test [5].
As for `CC1(C)C(/C=C/C=C/C=C/C=C2\N(CCCCS(=O)(=O)O)c3ccc4ccccc4c3C2(C)C)=[N+](CCCCS(=O)(=O)[O-])c2ccc3ccccc3c21` [INDOCYANINE GREEN ACID FORM], the AC50 on Vasopressin V2 receptor was above 30 µM; at Adenosine receptor A1, 22 µM; in test [2] it was 9 µM; in test [3], 9.2 µM; in test [4], 9.2 µM; on Vasopressin V1a receptor, 7.7 µM. Further, the AC50 on Cannabinoid receptor 1 was 9.3 µM; in [5] it was 13 µM.
For the compound `CC#CCn1c(N2CCC[C@@H](N)C2)nc2c1c(=O)n(Cc1nc(C)c3ccccc3n1)c(=O)n2C` [LINAGLIPTIN], the AC50 in test [1] was above 30 µM; at Vasopressin V2 receptor, above 30 µM; on Adenosine receptor A1, above 30 µM; in test [2], above 30 µM; in test [3] it was above 30 µM; in [4] it was above 10 µM. The AC50 was above 10 µM on Histamine H3 receptor, above 30 µM on Vasopressin V1a receptor and above 30 µM in [5].
Consider `O=C1CN=C(c2ccccc2)c2cc(Cl)ccc2N1` [NORDAZEPAM], for which the half-maximal activity concentration (AC50) was above 30 µM in test [1]; above 30 µM at Vasopressin V2 receptor; above 30 µM at Adenosine receptor A1; above 30 µM in test [2]; above 30 µM in test [3]; above 10 µM in test [4]. Further, the AC50 at Histamine H3 receptor is above 10 µM; at Vasopressin V1a receptor, above 10 µM; at Cannabinoid receptor 1 it was above 30 µM; in [5], above 10 µM.
Turning to `CC(=O)O[C@H]1C[C@@H]2CC[C@@H]3[C@H](CC[C@@]4(C)[C@H]3C[C@H]([N+]3(C)CCCCC3)[C@@H]4OC(C)=O)[C@@]2(C)C[C@@H]1[N+]1(C)CCCCC1` [PANCURONIUM], the AC50 in test [1] is above 30 µM; on Vasopressin V2 receptor it was above 10 µM; on Adenosine receptor A1, above 10 µM; in test [2], above 10 µM; in [4] it was above 10 µM; in [6], above 10 µM. Moreover, the AC50 at Vasopressin V1a receptor was above 10 µM; in test [5], above 30 µM.
`Cc1cc2nc3c(=O)[nH]c(=O)nc-3n(C[C@H](O)[C@H](O)[C@H](O)COP(=O)(O)O)c2cc1C` [RIBOFLAVIN 5'-PHOSPHATE]: the concentration at half-maximal activity (AC50) is 24 µM in test [1]; above 30 µM at Vasopressin V2 receptor; above 30 µM on Adenosine receptor A1; above 30 µM in test [2]; above 30 µM in [3]; above 30 µM in test [4]. The AC50 (at Histamine H3 receptor; on Vasopressin V1a receptor; in [5]) was above 30 µM each time.
Regarding `CC(C)CC(N(C)C)C1(c2ccc(Cl)cc2)CCC1` (stereo not given) [SIBUTRAMINE], the AC50 in test [1] was above 30 µM; at Vasopressin V2 receptor it was above 30 µM; at Adenosine receptor A1, above 30 µM; in test [2], above 30 µM; in test [3] it was above 30 µM; on Histamine H3 receptor it was above 10 µM. Also, the AC50 is above 10 µM on Vasopressin V1a receptor, above 30 µM at Cannabinoid receptor 1 and above 30 µM in test [5].
For `[H]/N=C(/N)N[C@H]1[C@H](O)[C@@H](O)[C@H](O[C@@H]2O[C@@H](C)[C@](O)(C=O)[C@H]2O[C@@H]2O[C@@H](CO)[C@H](O)[C@@H](O)[C@@H]2NC)[C@@H](N/C(N)=N\[H])[C@@H]1O` [STREPTOMYCIN], the AC50 (in test [1]; on Vasopressin V2 receptor; at Adenosine receptor A1; in [2]; in [3]; on Histamine H3 receptor) was above 30 µM each time. Further, the AC50 (on Vasopressin V1a receptor; on Cannabinoid receptor 1; in test [5]) was above 30 µM throughout.
On to `COc1cc2nccc(Oc3ccc(NC(=O)Nc4cc(C)on4)c(Cl)c3)c2cc1OC` [TIVOZANIB], for which the AC50 in test [4] was above 30 µM; in test [6], 24 µM.

In general, AC50 refers to the concentration at which the activity in the assay is half-maximal. A higher AC50 goes with activity only at high concentration.
